Source: ChEMBL document CHEMBL4364299, “Discovery of a Potent Kelch-Like ECH-Associated Protein 1-Nuclear Factor Erythroid 2-Related Factor 2 (Keap1-Nrf2) Protein-Protein Interaction Inhibitor with Natural Proline Structure as a Cytoprotective Agent against Acetaminophen-Induced Hepatotoxicity” (J Med Chem, 2019)

Assays:
[1] = molecular target: Kelch-like ECH-associated protein 1 (Homo sapiens, UniProt Q14145); assay: Displacement of FITC-LDEETGEFL-NH2 from human KEAP1 Kelch domain (322 to 609 residues) measured after 30 mins by fluorescence polarization assay
[2] = molecular target: T1, Nuclear factor erythroid 2-related factor 2 (Homo sapiens) (UniProt Q16236); assay: Activation of Nrf2 (unknown origin) stably transfected in human HepG2-ARE-C8 cells assessed as increase in ARE-driven luciferase activity at 0.1 uM by luciferase reporter gene assay relative to control; assay type: cell-based
T1 sequence (whole entry): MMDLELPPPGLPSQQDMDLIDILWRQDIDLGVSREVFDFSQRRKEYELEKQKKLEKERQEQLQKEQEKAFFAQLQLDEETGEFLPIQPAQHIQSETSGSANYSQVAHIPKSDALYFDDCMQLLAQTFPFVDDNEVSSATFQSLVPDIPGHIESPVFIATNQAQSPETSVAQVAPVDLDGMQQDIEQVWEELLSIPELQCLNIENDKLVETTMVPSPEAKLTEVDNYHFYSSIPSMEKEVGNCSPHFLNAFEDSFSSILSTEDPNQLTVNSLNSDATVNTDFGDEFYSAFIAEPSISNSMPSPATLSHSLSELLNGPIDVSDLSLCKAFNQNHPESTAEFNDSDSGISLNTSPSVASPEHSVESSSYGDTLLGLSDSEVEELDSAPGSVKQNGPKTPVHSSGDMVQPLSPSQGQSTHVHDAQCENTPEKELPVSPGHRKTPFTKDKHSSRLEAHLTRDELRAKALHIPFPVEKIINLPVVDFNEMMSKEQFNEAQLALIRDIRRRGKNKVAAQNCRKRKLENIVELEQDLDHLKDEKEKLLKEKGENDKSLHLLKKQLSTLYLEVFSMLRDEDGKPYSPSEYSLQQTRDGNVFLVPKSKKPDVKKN

[3] = molecular target: T1, Nuclear factor erythroid 2-related factor 2 (Homo sapiens); assay: Activation of Nrf2 (unknown origin) stably transfected in human HepG2-ARE-C8 cells assessed as increase in ARE-driven luciferase activity at 0.01 uM by luciferase reporter gene assay relative to control; assay type: cell-based
[4] = molecular target: T1, Nuclear factor erythroid 2-related factor 2 (Homo sapiens); assay: Activation of Nrf2 (unknown origin) stably transfected in human HepG2-ARE-C8 cells assessed as increase in ARE-driven luciferase activity at 20 uM by luciferase reporter gene assay relative to control; assay type: cell-based
[5] = molecular target: T1, Nuclear factor erythroid 2-related factor 2 (Homo sapiens); assay: Activation of Nrf2 (unknown origin) stably transfected in human HepG2-ARE-C8 cells assessed as increase in ARE-driven luciferase activity at 5 uM by luciferase reporter gene assay relative to control; assay type: cell-based
[6] = molecular target: T1, Nuclear factor erythroid 2-related factor 2 (Homo sapiens); assay: Activation of Nrf2 (unknown origin) stably transfected in human HepG2-ARE-C8 cells assessed as increase in ARE-driven luciferase activity at 1 uM by luciferase reporter gene assay relative to control; assay type: cell-based
[7] = molecular target: T1, Nuclear factor erythroid 2-related factor 2 (Homo sapiens); assay: Activation of Nrf2 (unknown origin) stably transfected in human HepG2-ARE-C8 cells assessed as increase in ARE-driven luciferase activity at 10 uM by luciferase reporter gene assay relative to control; assay type: cell-based

Chain of Kelch-like ECH-associated protein 1 (Q14145 whole entry, the tested form may be a part): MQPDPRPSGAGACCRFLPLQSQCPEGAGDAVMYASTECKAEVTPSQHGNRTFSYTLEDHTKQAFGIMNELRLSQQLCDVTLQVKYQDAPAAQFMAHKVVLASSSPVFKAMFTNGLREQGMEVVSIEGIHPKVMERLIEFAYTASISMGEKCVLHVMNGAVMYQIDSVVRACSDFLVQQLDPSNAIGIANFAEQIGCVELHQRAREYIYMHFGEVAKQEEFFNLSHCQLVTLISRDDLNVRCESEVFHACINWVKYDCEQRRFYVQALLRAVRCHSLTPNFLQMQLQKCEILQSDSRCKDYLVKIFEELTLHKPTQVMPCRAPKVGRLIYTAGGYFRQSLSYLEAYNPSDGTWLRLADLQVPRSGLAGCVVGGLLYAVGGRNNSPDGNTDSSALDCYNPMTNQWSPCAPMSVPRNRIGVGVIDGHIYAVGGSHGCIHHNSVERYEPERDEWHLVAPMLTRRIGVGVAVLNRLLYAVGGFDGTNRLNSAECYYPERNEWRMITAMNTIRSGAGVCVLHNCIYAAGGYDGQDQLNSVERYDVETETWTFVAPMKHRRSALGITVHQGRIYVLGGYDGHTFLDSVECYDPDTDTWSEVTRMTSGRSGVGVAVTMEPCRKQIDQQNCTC

Structure (SMILES)	IC50 [1]	further results
COc1ccc(S(=O)(=O)Nc2ccc(N[C@H](C(=O)O)C(C)(C)C)c3ccccc23)cc1	> 50 µM	–
COc1ccc(S(=O)(=O)Nc2ccc(N[C@@H](CCS(C)(=O)=O)C(=O)O)c3ccccc23)cc1	> 50 µM	–
COc1ccc(S(=O)(=O)Nc2ccc(N[C@@H](Cc3ccc(O)cc3)C(=O)O)c3ccccc23)cc1	> 50 µM	–
COc1ccc(S(=O)(=O)Nc2ccc(N[C@H](C(=O)O)C(C)C)c3ccccc23)cc1	> 50 µM	–
COc1ccc(S(=O)(=O)Nc2ccc(N[C@@H](CO)C(=O)O)c3ccccc23)cc1	> 50 µM	–
COc1ccc(S(=O)(=O)Nc2ccc(N[C@@H](C)C(=O)O)c3ccccc23)cc1	> 50 µM	–
CC(C)(C)c1cc(O)ccc1O	–	fold change (FC) [2]: 1.02; fold change (FC) [3]: 1.04; fold change (FC) [4]: 4.87; fold change (FC) [5]: 2.27; fold change (FC) [6]: 1.46; fold change (FC) [7]: 3.38
COc1ccc(S(=O)(=O)Nc2ccc(N[C@@H](Cc3c[nH]c4ccccc34)C(=O)O)c3ccccc23)cc1	> 50 µM	–
COc1ccc(S(=O)(=O)Nc2ccc(N[C@@H](CC(C)C)C(=O)O)c3ccccc23)cc1	> 50 µM	–
COc1ccc(S(=O)(=O)N(CC(=O)O)c2ccc(N[C@@H](CO)C(=O)O)c3ccccc23)cc1	> 50 µM	–
